Test results reported in ChEMBL document CHEMBL1255326, “erm(B)-carrying elements in tetracycline-resistant pneumococci and correspondence between Tn1545 and Tn6003” (2008).
The source made the active and inactive calls. No cut-off for these calls is given here.

What was measured:
Streptococcus pneumoniae [1] = experiment: Antibacterial activity against tetracycline resistant Streptococcus pneumoniae clinical isolate expressing erm(B) and tet(M) gene by agar dilution CLSI method; format: functional
Streptococcus pneumoniae [2] = experiment: Antibacterial activity against tnpR/tnpA positive tetracycline resistant Streptococcus pneumoniae clinical isolate expressing Tn3872 carrying erm(B) and tet(M) gene at 1000 ug by disk diffusion method; format: functional, organism-based
Streptococcus pneumoniae [3] = experiment: Antibacterial activity against tetracycline resistant Streptococcus pneumoniae clinical isolate expressing Tn6002 carrying erm(B) and tet(M) gene at 1000 ug by disk diffusion method; format: functional, organism-based
Streptococcus pneumoniae [4] = experiment: Antibacterial activity against aphA-3 positive tetracycline resistant Streptococcus pneumoniae clinical isolate expressing Tn6003 carrying erm(B)and tet(M) gene at 1000 ug by disk diffusion method; format: functional, organism-based

Compound: CN(C)[C@@H]1C(O)=C(C(N)=O)C(=O)[C@@]2(O)C(O)=C3C(=O)c4c(O)cccc4[C@@](C)(O)[C@H]3C[C@@H]12 [TETRACYCLINE]
- MIC (Streptococcus pneumoniae [1]): > 32 µg/mL

Compound: CC[C@H]1OC(=O)[C@H](C)[C@@H](O[C@H]2C[C@@](C)(OC)[C@@H](O)[C@H](C)O2)[C@H](C)[C@@H](O[C@@H]2O[C@H](C)C[C@H](N(C)C)[C@H]2O)[C@](C)(O)C[C@@H](C)C(=O)[C@H](C)[C@@H](O)[C@]1(C)O [ERYTHROMYCIN]
- MIC (Streptococcus pneumoniae [1]): > 128 µg/mL

Compound: NC[C@H]1O[C@H](O[C@H]2[C@H](O)[C@@H](O[C@H]3O[C@H](CO)[C@@H](O)[C@H](N)[C@H]3O)[C@H](N)C[C@@H]2N)[C@H](O)[C@@H](O)[C@@H]1O
- Activity (Streptococcus pneumoniae [2]): Active
- Activity (Streptococcus pneumoniae [3]): Active
- Activity (Streptococcus pneumoniae [4]): inactive
